In data set [1] the test system is enzymes produced by S. aureus MN8. Put plainly: Breakdown of test compounds by enzymes produced by S. aureus MN8, GC/MS of culture fluid. In kind it is in vitro ADME. As to conditions: concentrations of b130; for course of the concentration of the dominant compound over time: GC/MS at 3, 6, 9 and 24 hours; for dominant compound found in the culture fluid: GC/MS, undiluted solutions at 3, 6, 9 and 24 hours. On the procedure:
(§1) The test compounds, in the desired concentrations, were placed in 100 mL of a growth medium in a sterile, 500 mL Corning Fleaker (Fisher Scientific, Pittsbury, Pa.). The growth medium and inoculum were prepared as in Example 1.
(§2) The test compounds were added to the growth medium in the amount necessary to obtain the desired final concentration.
(§3) Each fleaker was inoculated with the amount of inoculum determined as described above. The fleakers were capped with sterile aluminum foil and incubated at 35° C. in atmospheric air in a Lab-Line orbital water bath (available from VWR Scientific Products, McGaw Park, Ill.) at 180 rpm. Fifteen milliliter samples were removed at 3, 6, 9, and 24 hours. The optical density (595 nm) of the culture fluid was determined and the culture fluid collected at 24 hours was assayed for the number of colony forming units of S. aureus MN8 using standard plate count procedures.
In preparation for analysis of the integrity of the test compounds, the culture fluid was centrifuged at 3000 rpm at 2-10° C. for 15 minutes. The supernatant was filter sterilized through an AUTOVIAL 5 syringeless filter, […] pore size (available from Whatman, Inc., Clifton, N.J.). The resulting fluid was frozen at −70° C. in a FISHERBRAND (12 mm×75 mm) polystyrene culture tube (Fisher Scientific, Pittsburgh, Pa.) until chemical analysis could be performed.
Using an Agilent Technologies 5973N GC/MS, analysis was performed on undiluted solutions at 3, 6, 9, and 24 hours to evaluate the ability of S. aureus MN8 to breakdown the test compounds. Based on the analysis, the control sample, which had no test compounds added, comprised mostly acetic acid at all time intervals.

The test system is the same in data set [2]. Put plainly: Breakdown of test compounds by S. aureus MN8, liquid chromatography of culture fluid. The class given is in vitro ADME. The conditions noted are these: 6 hour and 24 hour samples, UV 230 nm. On the procedure:
as §1, §2, §3
In preparation for analysis of the integrity of the test compounds, the culture fluid was centrifuged at 3000 rpm at 2-10° C. for 15 minutes. […]
Additional analysis of the 6 hour and 24 hour samples was conducted by liquid chromatography. […] The dilutions were then analyzed using an ion exclusion column to achieve the separation. Detection of the compounds was accomplished through UV absorbance at 230 nm.

As to `OCc1ccccc1` [Benzyl alcohol, benzyl alcohol], in data set [1], the “course of the concentration of the dominant compound over time” value (shortened to “course of the concentration … over time”) is recorded as “decreased over time” and the “dominant compound found in the culture fluid” value (shortened to “dominant compound found”) was “benzyl alcohol”.

`O=C(O)c1ccccc1` [benzoic acid]: in data set [1], the “course of the concentration … over time” value is “decreased over time” and the “dominant compound found” value was “benzoic acid”.

With `CC(C)CC(NC(=O)c1ccccc1)C(=O)O` (racemic) [N-benzoyl-DL-leucine, N-Benzoyl-DL-Leucine], in data set [1], the “course of the concentration … over time” value is recorded as “decreasing concentration over time” and the “dominant compound found” value is on record as “benzoic acid”. Besides, in data set [2], the “breakdown to the active species” value is on record as “breakdown to benzoic acid”.

The record behind these values is patent publication US20060067991A1 (priority 2004, published 2006).
